Results as given in patent US7968556B2, “Heteroaryl compounds, compositions thereof, and methods of treatment therewith” (Signal Pharmaceuticals, LLC, priority 2006, dated 2011).

How the values were obtained:
mTOR = mTOR (Homo sapiens, UniProt P42345); test: mTOR HTR-FRET Assay; format: biochemical
How it was run: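 TOR enzyme fraction preincubated 30 min at room temperature with compound, then reaction started with GST-p70S6 kinase fragment substrate (97 nM working stock) plus ATP/Mn2+ and run 2 h at room temperature in Tris pH 7.4 buffer. Stopped with EDTA; phospho-substrate detected by HTRF antibody reagent after 5 h to overnight.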

Syk = target: T1, Syk (Homo sapiens, UniProt P43405); test: Syk HTRF Assay; format: biochemical
T1 construct: purchased Cama Biosciences (so in the source)
Procedure: 5 μl/well DMSO is added to Column 2 Wells A-0 and 29.5 μl to well P2 of Greiner 384-well polypropylene plate. 20 μl/well DMSO is added to Columns 1 and 3-12.
25 mM compound solutions are prepared by the addition of 25 μl of 30 mM compound to Column 2 and 0.5 μl 30 mM reference control to well P2.
Serial dilution is then performed by the following steps: (i) compounds in Column 2 are mixed by pipetting 20 μl up and down 6×; (ii) 10 μl/well compounds in DMSO are transferred from one column to the next column for Columns 2-11; (iii) wells are mixed by pipetting 20 μl up and down 6×; (iv) tips washed 3×25 μl DMSO, 2×25 μl next DMSO.
The following buffers are prepared:
Dilution Buffer: 50 mM HEPES pH 7.6; 1 mM DTT; 10 mM MgCl2; 0.01% Triton X100; 0.01% BSA; 0.1 mM EDTA.
Enzyme Mix in Dilution Buffer: 8.621 ng/ml Syk (Cama Biosciences 08-176).
Start Mix in Dilution Buffer: 87.5 μM ATP; 80 nM Substrate Peptide (American Peptide Company 332722).
14.5 μl/well Enzyme Mix or Dilution Buffer (Background Controls) is added to Costar 384-well black plates.
Compound addition and mixture is performed by the following steps: (i) 0.5 μl/well DMSO/compounds in DMSO transferred from Greiner 384-well polypropylene plate to left half of assay plate containing 14.5 μl/well Enzyme Mix and Dilution Buffer; (ii) Mix by pipetting 10 μl up and down 4×; (iii) tips are washed 4×10 μl in DMSO, 2×20 μl in other DMSO; (iv) steps i-iii are repeated with transfer to right half of assay plate; (v) steps i-iv are repeated with each compound/assay plate until all plates are completed.
10 μl/well Start Mix is added and incubated at room temperature on shaker for 2 minutes (1 hour total reaction time).
Stop Solution in Dilution Buffer: 120 mM EDTA
Antibody Mix in Dilution Buffer: 4.86 μg/ml DyLight 647 Streptavidin (Pierce 21824); 1 μg/ml Lance Eu-Anti-Phosphotyrosine (PerkinElmer AD0069).
5 μl/well[…] is added and incubated at room temperature on shaker for 2 minutes.
[…] Antibody Mix is added and Incubated at room temperature on shaker for 2 minutes (4 hours to overnight total time).
Plates are read at 665 nm and 620 nm emission on Analyst GT protocol HTRF_SP_A or EnVision protocol Steve's TR-FRET.

Structure (SMILES)	IC50 (mTOR) [µM]	IC50 (Syk) [µM]
NC(=O)c1nc(-c2cccnc2)nc2c1[nH]c(=O)n2[C@H]1CC[C@H](O)CC1 [Compound 50, 9-(trans-4-Hydroxycyclohexyl)-8-oxo-2-(pyridin-3-yl)-8,9-dihydro-7H-purine-6-carboxamide]	0.1 to 5	–
COc1ccccc1-n1c(=O)[nH]c2c(C(N)=O)nc(-c3ccnc(O)c3)nc21 [Compound 13, 2-(2-hydroxypyridin-4-yl)-9-(2-methoxyphenyl)-8-oxo-8,9-dihydro-7H-purine-6-carboxamide]	> 30	> 30
COc1ccccc1-n1c(=O)[nH]c2c(C(N)=O)nc(-c3ccc(O)cc3)nc21 [Compound 8, 2-(4-hydroxyphenyl)-9-(2-methoxyphenyl)-8-oxo-8,9-dihydro-7H-purine-6-carboxamide]	5.1 to 10	> 30
